Results on two molecules are retold here after US10039760B2, “Method of using diketopiperazines and composition containing them” (Ampio Pharmaceuticals, Inc., priority 2000, dated 2018).

The test system of the test is NHBE 6122 normal human bronchial epithelial cells. As to the kind of experiment: PAF-induced release of IL-8 by NHBE 6122 cells (IL-8 ELISA of cell supernatants). In kind it is cell-based. The method, then: NHBE 6122 normal human bronchial epithelial cells (Clonetics, San Diego, Calif.) were added to a 24-well tissue culture plate (Falcon, now BD Biosciences, Franklin Lakes, […]) in BEGM (bronchial epithelial growth medium; Clonetics) containing epinephrine (complete medium) at 37° C. and 5% CO2. After adhering, the cells were washed twice with BEGM medium without epinephrine. They were then incubated in complete medium or in complete medium containing 20 μM 3-methyl-2,5-diketopiperazine-6-acetic acid (DA-DKP; preparation described in Example 1, 5; stock solution made in HEPES buffered saline (HBSS; Clonetics) at 4 mM for 20 minutes at 37° C. and 5% CO2. Platelet activating factor (PAF; Sigma, St. Louis, Mo.) dissolved in dimethylsulfoxide (DMSO; tissue culture grade; Sigma, St. Louis, Mo.) was then added to a final concentration of 100 nM or 500 nM, and the cells were incubated for an additional 6 hours at 37° C. and 5% CO2. Medium containing DMSO and HBSS was used as a control.
The concentration of IL-8 in cell supernatants was determined by an ELISA using human IL-8 matched pair antibodies (Endogen, Cambridge, Mass.). The ELISA was performed using an ELISA kit from Endogen, Cambridge, Mass. according to the manufacturer's instructions with the following exceptions: (1) coating antibody at 1 μg/ml; (2) detecting antibody 30 ng/ml; StrepAvidin HRP diluted 1:32,000.
For orientation: In an ELISA, binding on a coated surface is turned into a signal by an enzyme label.

For `CC1NC(=O)C(CC(=O)O)NC1=O` (stereo not shown) [DA-DKP, 3-methyl-2,5-diketopiperazine-6-acetic acid], the “IL-8” value reads like this: (Table 1, 20 min pre-incubation with DA-DKP 20 μM, then PAF 100 nM for 6 hours, 20,000 cells/well) 714.91 pg/mL; (Table 1, DA-DKP 20 μM alone, no PAF, 20,000 cells/well, 6 hours) 803.11 pg/mL; (Table 2, 20 min pre-incubation with DA-DKP 20 μM, then PAF 500 nM for 6 hours, 20,000 cells/well) 542.5 pg/mL; (Table 2, DA-DKP 20 μM alone, no PAF, 20,000 cells/well, 6 hours) 837.84 pg/mL; (Table 3, DA-DKP 20 μM alone, no PAF, cells split to 5,000 cells/well four days prior, grown to 70% confluence) 184.86 pg/mL; (Table 3, pre-incubation with DA-DKP 20 μM, then PAF 100 nM, cells split to 5,000 cells/well four days prior, grown to 70% confluence) 201.93 pg/mL. Further, the “IL-8 secretion induced by PAF” value (result in words, pre-incubation of the cells with the diketopiperazine) is “inhibited”.

Turning to “1-O-alkyl-2-acetyl-sn-glycerol-3-phosphorylcholine [PAF, reference compound]”, the “IL-8” value runs as follows: (Table 1, PAF 100 nM alone, 20,000 cells/well, 6 hours) 1094.68 pg/mL; (Table 2, PAF 500 nM alone, 20,000 cells/well, 6 hours) 887.87 pg/mL; (Table 3, PAF 100 nM alone, cells split to 5,000 cells/well four days prior, grown to 70% confluence) 355.36 pg/mL.
